Reference: the supplement of paper PMC8633005

Legend:
Test in all cases: drug sensitivity score (DSS) (DSS (unitless, 0-50 scale)); higher = more sensitive (stronger viability inhibition); extreme values may be limits of the assay
Settings in all cases: 72 h; culture: 2D
SK-MEL-2 = system: SK-MEL-2
How it was run: (§1)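 Viability was measured by CellTiter-Glo luminescence after 72 h at 37 °C in 384-well plates holding a 527-compound oncology library, with patient-derived melanoma cultures (1000–1500 cells per well) and melanoma cell lines grown in 2D. Every compound was tested at five concentrations spanning a 10,000-fold range. The drug sensitivity score, a modified area under the curve, came from dose-response curves fitted with in-house Breeze software.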

FM-MEL-2 = system: FM-MEL-2
How it was run: as §1

FM-MEL-3 = system: FM-MEL-3
How it was run: as §1

FM-MEL-6 = system: FM-MEL-6
How it was run: as §1

SK-MEL-28 = system: SK-MEL-28
How it was run: as §1

WM165 = system: WM165
How it was run: as §1

Bowes = system: Bowes
How it was run: as §1

WM852 = system: WM852
How it was run: as §1

Structure (SMILES)	drug sensitivity score (SK-MEL-2)	drug sensitivity score (FM-MEL-2)	drug sensitivity score (FM-MEL-3)	drug sensitivity score (FM-MEL-6)	drug sensitivity score (SK-MEL-28)	drug sensitivity score (WM165)	drug sensitivity score (Bowes)	drug sensitivity score (WM852)
C[C@@H]1CCN(C(=O)CC#N)C[C@@H]1N(C)c1ncnc2[nH]ccc12 [Tofacitinib]	0	0	0	0	0	0	0	0
CC[C@@]1(O)C(=O)OCc2c1cc1n(c2=O)Cc2cc3c(CN(C)C)c(O)ccc3nc2-1 [Topotecan]	8.2	6.1	11	8.1	8.1	25.3	6.8	1.4
CN(C)CCOc1ccc(/C(=C(/CCCl)c2ccccc2)c2ccccc2)cc1 [Toremifene]	1.6	5.8	7.8	6	4.4	4.3	1.1	3.4
CC(C)C[C@@H](C(=O)N[C@H](C(=O)OC1CCCC1)c1ccccc1)[C@H](O)C(=O)NO [Tosedostat]	5.3	6.3	6.3	7.9	6.7	6.8	1.4	0.7
Cc1cc(Nc2cc(N3CCN(C)CC3)nc(Sc3ccc(NC(=O)C4CC4)cc3)n2)n[nH]1 [Tozasertib]	2.8	1.9	4.5	2.7	5.1	12.8	11.7	3.5
CC1=C(/C=C/C(C)=C/C=C/C(C)=C/C(=O)O)C(C)(C)CCC1 [Tretinoin]	0	0	0.7	0.8	0	0	5.7	0
NC(=S)N/N=C/c1ncccc1N [Triapine]	0	0.4	0.6	3.2	2.5	5.3	1.9	0
O=c1[nH]c(=O)n([C@H]2C[C@H](O)[C@@H](CO)O2)cc1C(F)(F)F [Trifluridine]	0	0	0.1	0.8	2.7	3.5	0	0
O=C(CCCCCCC(=O)Nc1ccc([C@H]2O[C@@H](CSc3nc(-c4ccccc4)c(-c4ccccc4)o3)C[C@@H](c3ccc(CO)cc3)O2)cc1)NO [Tubacin]	0.8	0.9	0	0.2	0	4.7	4.9	3.9
CN1CCc2c(c3ccccc3n2Cc2ccc(C(=O)NO)cc2)C1 [Tubastatin A]	1	0.6	0.6	0	1.3	2.2	2	0
Cc1cc(Nc2ncnc3ccc(NC4=NC(C)(C)CO4)cc23)ccc1Oc1ccn2ncnc2c1 [Tucatinib]	0	0.4	0	0	0	0	0	0
Nc1cc(F)ccc1NC(=O)c1ccc(CNC(=O)/C=C/c2cccnc2)cc1 [Tucidinostat]	5	5.1	7.7	7.2	5.6	7.8	1.9	0
CN[C@@H]1C[C@H]2O[C@@](C)([C@@H]1OC)n1c3ccccc3c3c4c(c5c6ccccc6n2c5c31)C(=O)N[C@H]4O [UCN-01]	16.2	13.5	24.7	14.5	13.4	23.5	17.5	19.9
COC(=O)c1ccc2c(c1)[nH]c1ncnc(NCCCN3CCCCC3)c12 [UM729]	0	1	2.5	0	0.6	0	0	0
COc1cc2c(NC3CCN(C(C)C)CC3)nc(C3CCCCC3)nc2cc1OCCCN1CCCC1 [UNC0638]	5.9	6.9	4.4	2.8	5.8	5.8	6.6	5.9
COc1cc2c(NC3CCN(C(C)C)CC3)nc(N3CCC(F)(F)CC3)nc2cc1OCCCN1CCCC1 [UNC0642]	4.1	4.5	0.7	2.5	2	4.5	4	5.1
O=C(c1ccc(C(=O)N2CCC(N3CCCC3)CC2)c(Nc2ccccc2)c1)N1CCC(N2CCCC2)CC1 [UNC1215]	0	0	0	0	0	0	0	0
CCCCNc1ncc(C(=O)NCc2ccc(-n3ccnc3)cc2)c(NC2CCC(O)CC2)n1 (stereo not given) [UNC2881]	0	2.2	0	0	0	0	0	0
NC(=O)c1cccc(-c2cccc(OC(=O)NC3CCCCC3)c2)c1 [URB597]	0	0	0	0	0	0	0	0
CC[C@@H]1CN(C(=O)NCC(F)(F)F)C[C@@H]1c1cnc2cnc3[nH]ccc3n12 [Upadacitinib]	0	3.6	3.1	3.6	0.3	0	0	2.1
